Test results as given in ChEMBL document CHEMBL3797190, “Development of 3,5-Dinitrobenzylsulfanyl-1,3,4-oxadiazoles and Thiadiazoles as Selective Antitubercular Agents Active Against Replicating and Nonreplicating Mycobacterium tuberculosis” (J Med Chem, 2016).
In brackets after ≈: the same amount, converted by molar mass.

Columns and labels:
Mycobacterium avium [1] = assay: Antimycobacterial activity against Mycobacterium avium CNCTC My 330/88 after 21 days by microdilution method; format: functional; details: CNCTC My 330/88, 504 h
Mycobacterium kansasii [2] = assay: Antimycobacterial activity against Mycobacterium kansasii CNCTC My 6509/96 after 14 days by microdilution method; format: functional; details: CNCTC My 6509/96, 336 h
[3] = tested on: Staphylococcus epidermidis; assay: Antibacterial activity against Staphylococcus epidermidis H 6966/08 after 24 to 48 hrs by broth microdilution method; format: functional
Lichtheimia corymbifera = assay: Antifungal activity against Absidia corymbifera 272 after 24 to 48 hrs by broth microdilution method; format: functional
Klebsiella pneumoniae [4] = assay: Antibacterial activity against ESBL producing Klebsiella pneumoniae J 14368/08 after 24 to 48 hrs by broth microdilution method; format: functional
HeLa [5] = assay: Cytotoxicity against human HeLa cells assessed as cell viability after 24 hrs by MTS assay; format: cell-based
Pichia kudriavzevii = assay: Antifungal activity against Candida krusei E28 after 24 to 48 hrs by broth microdilution method; format: functional
Mycobacterium kansasii [6] = assay: Antimycobacterial activity against Mycobacterium kansasii CNCTC My 235/80 after 7 days by microdilution method; format: functional; details: CNCTC My 235/80, 168 h
Staphylococcus aureus [7] = assay: Antibacterial activity against Staphylococcus aureus ATCC 6538 after 24 to 48 hrs by broth microdilution method; format: functional
[8] = Cytotoxicity against human HuH7 cells assessed as cell viability after 24 hrs by MTS assay; format: cell-based; details: Huh-7, 24 h
[9] = Cytotoxicity against human HuH7 cells assessed as cell viability after 48 hrs by MTS assay; format: cell-based; details: Huh-7, 48 h
Escherichia coli = assay: Antibacterial activity against Escherichia coli ATCC 8739 after 24 to 48 hrs by broth microdilution method; format: functional
Pseudomonas aeruginosa = assay: Antibacterial activity against Pseudomonas aeruginosa ATCC 9027 after 24 to 48 hrs by broth microdilution method; format: functional
[10] = Cytotoxicity against human HuH7 cells assessed as cell viability at 20 uM after 24 hrs by MTS assay; format: cell-based, Huh-7; details: read-out: Activity
Candida albicans = assay: Antifungal activity against Candida albicans ATCC 44859 after 24 to 48 hrs by broth microdilution method; format: functional
[11] = Cytotoxicity against MDCK2-MDR1 cells assessed as cell viability at 20 uM after 48 hrs by MTS assay; format: ADME, cell-based, Canis lupus familiaris, MDCK-II; details: dog, read-out: Activity
[12] = Cytotoxicity against MDCK2-MDR1 cells assessed as cell viability after 48 hrs by MTS assay; format: ADME, cell-based; details: Canis lupus familiaris, MDCK-II
Mycobacterium kansasii [13] = assay: Antimycobacterial activity against Mycobacterium kansasii CNCTC My 235/80 after 14 days by microdilution method; format: functional; details: CNCTC My 235/80, 336 h
[14] = Cytotoxicity against MDCK2-MDR1 cells assessed as cell viability after 24 hrs by MTS assay; format: ADME, cell-based; details: Canis lupus familiaris, MDCK-II
Aspergillus fumigatus = assay: Antifungal activity against Aspergillus fumigatus 231 after 24 to 48 hrs by broth microdilution method; format: functional
[15] = tested on: Mycobacterium tuberculosis; assay: Antimycobacterial activity against Mycobacterium tuberculosis CNCTC My 331/88 after 14 days by microdilution method; format: functional; details: CNCTC My 331/88, 336 h
[16] = Cytotoxicity against MDCK2-MDR1 cells assessed as cell viability at 20 uM after 24 hrs by MTS assay; format: ADME, cell-based, Canis lupus familiaris, MDCK-II; details: dog, read-out: Activity
Mycobacterium kansasii [17] = assay: Antimycobacterial activity against Mycobacterium kansasii CNCTC My 6509/96 after 7 days by microdilution method; format: functional; details: CNCTC My 6509/96, 168 h
Klebsiella pneumoniae [18] = assay: Antibacterial activity against Klebsiella pneumoniae D 11750/08 after 24 to 48 hrs by broth microdilution method; format: functional
HeLa [19] = assay: Cytotoxicity against human HeLa cells assessed as cell viability after 48 hrs by MTS assay; format: cell-based
[20] = Cytotoxicity against human HeLa cells assessed as cell viability at 20 uM after 48 hrs by MTS assay; format: cell-based; details: read-out: Activity
Staphylococcus aureus [21] = assay: Antibacterial activity against methicillin-resistant Staphylococcus aureus H 5996/08 after 24 to 48 hrs by broth microdilution method; format: functional
Trichosporon asahii = assay: Antifungal activity against Trichosporon asahii 1188 after 24 to 48 hrs by broth microdilution method; format: functional
[22] = Cytotoxicity against human HuH7 cells assessed as cell viability at 20 uM after 48 hrs by MTS assay; format: cell-based, Huh-7; details: read-out: Activity
Mycobacterium avium [23] = assay: Antimycobacterial activity against Mycobacterium avium CNCTC My 330/88 after 14 days by microdilution method; format: functional; details: CNCTC My 330/88, 336 h
Candida tropicalis = assay: Antifungal activity against Candida tropicalis 156 after 24 to 48 hrs by broth microdilution method; format: functional
Nakaseomyces glabratus = assay: Antifungal activity against Candida glabrata 20/I after 24 to 48 hrs by broth microdilution method; format: functional
Mycobacterium kansasii [24] = assay: Antimycobacterial activity against Mycobacterium kansasii CNCTC My 6509/96 after 21 days by microdilution method; format: functional; details: CNCTC My 6509/96, 504 h
Mycobacterium kansasii [25] = assay: Antimycobacterial activity against Mycobacterium kansasii CNCTC My 235/80 after 21 days by microdilution method; format: functional; details: CNCTC My 235/80, 504 h
[26] = tested on: Trichophyton mentagrophytes; assay: Antifungal activity against Trichophyton mentagrophytes 445 after 72 to 120 hrs by broth microdilution method; format: functional
Enterococcus faecalis = assay: Antibacterial activity against Enterococcus faecalis J 14365/08 after 24 to 48 hrs by broth microdilution method; format: functional
[27] = Cytotoxicity against human HeLa cells assessed as cell viability at 20 uM after 24 hrs by MTS assay; format: cell-based; details: read-out: Activity
[28] = tested on: Mycobacterium tuberculosis; assay: Antimycobacterial activity against Mycobacterium tuberculosis CNCTC My 331/88 after 21 days by microdilution method; format: functional; details: CNCTC My 331/88, 504 h
Salmonella typhimurium [29] = assay: Mutagenic activity in Salmonella typhimurium TA98 assessed as reverse mutation at 30 uM by Ames test; format: toxicity, organism-based; details: salmonella enterica subsp. enterica serovar typhimurium
Salmonella typhimurium [30] = assay: Mutagenic activity in Salmonella typhimurium TA100 assessed as reverse mutation at 30 uM by Ames test; format: toxicity, organism-based; details: salmonella enterica subsp. enterica serovar typhimurium

SMILES | MIC95 [3] [µM] | MIC50 (Lichtheimia corymbifera) [µM] | MIC95 (Klebsiella pneumoniae [4]) [µM] | IC50 (HeLa [5]) [µM] | MIC80 (Pichia kudriavzevii) [µM] | MIC95 (Staphylococcus aureus [7]) [µM] | IC50 [8] [µM] | IC50 [9] [µM] | MIC95 (Escherichia coli) [µM] | MIC95 (Pseudomonas aeruginosa) [µM] | viability at 24 h, 20 µM [10] [%] | MIC80 (Candida albicans) [µM] | viability at 48 h, 20 µM [11] [%] | IC50 [14] [µM] | MIC50 (Aspergillus fumigatus) [µM] | viability at 24 h, 20 µM [16] [%] | MIC95 (Klebsiella pneumoniae [18]) [µM] | viability at 48 h, 20 µM [20] [%] | MIC95 (Staphylococcus aureus [21]) [µM] | MIC80 (Trichosporon asahii) [µM] | further results
COc1ccc(-c2nnc(SCc3cc([N+](=O)[O-])cc([N+](=O)[O-])c3)s2)cc1 | > 125 | > 125 | > 125 | > 20 | > 125 | > 125 | > 20 | > 20 | > 125 | > 125 | 95.4 | > 125 | 60 | > 20 | > 125 | 101 | > 125 | 27.1 | > 125 | > 125 | MIC99 (Mycobacterium avium [1]): 16 µM (≈ 6.47 µg/mL); MIC99 (Mycobacterium kansasii [2]): 1 µM (≈ 0.404 µg/mL); MIC99 (Mycobacterium kansasii [6]): 0.25 µM (≈ 0.101 µg/mL); IC50 [12]: > 20 µM; MIC99 (Mycobacterium kansasii [13]): 1 µM (≈ 0.404 µg/mL); MIC99 [15]: 0.125 µM (≈ 0.0506 µg/mL); MIC99 (Mycobacterium kansasii [17]): 0.25 µM (≈ 0.101 µg/mL); IC50 (HeLa [19]): 4.4 µM; viability at 48 h, 20 µM [22]: 84.2%; MIC99 (Mycobacterium avium [23]): 8 µM (≈ 3.24 µg/mL); MIC80 (Candida tropicalis): > 125 µM; MIC80 (Nakaseomyces glabratus): > 125 µM; MIC99 (Mycobacterium kansasii [24]): 1 µM (≈ 0.404 µg/mL); MIC99 (Mycobacterium kansasii [25]): 1 µM (≈ 0.404 µg/mL); MIC50 [26]: > 125 µM; MIC95 (Enterococcus faecalis): > 125 µM; viability at 24 h, 20 µM [27]: 88%; MIC99 [28]: 0.125 µM (≈ 0.0506 µg/mL)
COc1ccc(-c2nnc(SCc3ccc([N+](=O)[O-])cc3[N+](=O)[O-])o2)cc1 | > 125 | > 125 | > 125 | > 20 | > 125 | > 125 | > 20 | > 20 | > 125 | > 125 | 85.1 | > 125 | 78.5 | > 20 | > 125 | 87.9 | > 125 | 106 | > 125 | > 125 | MIC99 (Mycobacterium avium [1]): 4 µM (≈ 1.55 µg/mL); MIC99 (Mycobacterium kansasii [2]): 8 µM (≈ 3.11 µg/mL); MIC99 (Mycobacterium kansasii [6]): 2 µM (≈ 0.777 µg/mL); IC50 [12]: > 20 µM; MIC99 (Mycobacterium kansasii [13]): 8 µM (≈ 3.11 µg/mL); MIC99 [15]: 0.5 µM (≈ 0.194 µg/mL); MIC99 (Mycobacterium kansasii [17]): 2 µM (≈ 0.777 µg/mL); IC50 (HeLa [19]): > 20 µM; viability at 48 h, 20 µM [22]: 77%; MIC99 (Mycobacterium avium [23]): 4 µM (≈ 1.55 µg/mL); MIC80 (Candida tropicalis): > 125 µM; MIC80 (Nakaseomyces glabratus): > 125 µM; MIC99 (Mycobacterium kansasii [24]): 16 µM (≈ 6.21 µg/mL); MIC99 (Mycobacterium kansasii [25]): 16 µM (≈ 6.21 µg/mL); MIC50 [26]: > 125 µM; MIC95 (Enterococcus faecalis): > 125 µM; viability at 24 h, 20 µM [27]: 89.9%; MIC99 [28]: 1 µM (≈ 0.388 µg/mL)
O=[N+]([O-])c1ccc(CSc2nnc(-c3ccccc3)o2)c([N+](=O)[O-])c1 | > 125 | > 125 | > 125 | > 20 | > 125 | > 125 | > 20 | > 20 | > 125 | > 125 | 99.5 | > 125 | 73.3 | > 20 | > 125 | 69.6 | > 125 | 113 | > 125 | > 125 | MIC99 (Mycobacterium avium [1]): > 16 µM; MIC99 (Mycobacterium kansasii [2]): 8 µM (≈ 2.87 µg/mL); MIC99 (Mycobacterium kansasii [6]): 4 µM (≈ 1.43 µg/mL); Activity (Salmonella typhimurium [29]): Toxic; IC50 [12]: > 20 µM; MIC99 (Mycobacterium kansasii [13]): 8 µM (≈ 2.87 µg/mL); MIC99 [15]: 2 µM (≈ 0.717 µg/mL); MIC99 (Mycobacterium kansasii [17]): 2 µM (≈ 0.717 µg/mL); IC50 (HeLa [19]): > 20 µM; viability at 48 h, 20 µM [22]: 92.8%; MIC99 (Mycobacterium avium [23]): > 16 µM; MIC80 (Candida tropicalis): > 125 µM; MIC80 (Nakaseomyces glabratus): > 125 µM; MIC99 (Mycobacterium kansasii [24]): 8 µM (≈ 2.87 µg/mL); MIC99 (Mycobacterium kansasii [25]): 16 µM (≈ 5.73 µg/mL); MIC50 [26]: > 125 µM; MIC95 (Enterococcus faecalis): > 125 µM; viability at 24 h, 20 µM [27]: 97.7%; MIC99 [28]: 4 µM (≈ 1.43 µg/mL)
O=[N+]([O-])c1cc(CSc2nnc(-c3ccccc3)o2)cc([N+](=O)[O-])c1 | > 125 | > 125 | > 125 | > 20 | > 125 | > 125 | > 20 | > 20 | > 125 | > 125 | 99.3 | > 125 | 42.4 | > 20 | > 125 | 72.6 | > 125 | 33.2 | > 125 | > 125 | Activity (Salmonella typhimurium [30]): Non-toxic; Activity (Salmonella typhimurium [29]): Toxic; viability at 48 h, 20 µM [22]: 73.8%; MIC80 (Candida tropicalis): > 125 µM; MIC80 (Nakaseomyces glabratus): > 125 µM; MIC99 (Mycobacterium kansasii [24]): 2 µM (≈ 0.717 µg/mL); MIC50 [26]: > 125 µM; MIC95 (Enterococcus faecalis): > 125 µM; viability at 24 h, 20 µM [27]: 88.3%
